Literature values as cited in patent US20150265628A1, “GENOMIC TESTING FOR EFFECTIVE THERAPIES AND DETERMINATION OF DOSING STRATEGY” (CompanionDx Reference Lab, LLC, priority 2014, published 2015).

Tests used:
HLA-DQB1 = conditions: marker carriers, under the current blood-monitoring system
[1] = patients with schizophrenia, while taking the drug; perphenazine 1.0 as comparator

| Structure (SMILES) | risk of CIA higher than the overall clozapine-treated population (HLA-DQB1) | risk of death from suicide, adjusted for risk factors [1] |
| --- | --- | --- |
| CN1CCN(C2=Nc3cc(Cl)ccc3Nc3ccccc32)CC1 [clozapine] | 1,175% | 0.34 |
| OCCN1CCN(CCCN2c3ccccc3Sc3ccc(Cl)cc32)CC1 [perphenazine] |  | 1.0 |
| OCCOCCN1CCN(C2=Nc3ccccc3Sc3ccccc32)CC1 [quetiapine] |  | 1.58 |
